{
  "source": "patent US20240285737A1",
  "about": "“IMPROVED METHODS OF TREATMENT USING IMMUNOGENIC PEPTIDES” (IMCYSE SA, priority 2021, published 2024)",
  "system": "proinsulin epitope C20-A1-specific CD4+ T cells",
  "experiment": "FACS quantification of CD4+ T cells responding to proinsulin epitope C20-A1 stimulation in PBMCs of T1D patients treated with IMP or placebo",
  "format": "in vivo, human",
  "settings": "visits 3 to 6 (impact of administrations 3 to 6)",
  "method": "84 HLA DR4+ adult participants are randomly assigned (1:1:1) to one of the three treatment arms: placebo, investigational medicinal product (IMP) 450 μg and IMP 1350 μg (=the main study). All participants receive 6 administrations of IMP or placebo with a 2-week interval between each administration. At 24 weeks participants receive a boost injection. While treated participants receive a boost administration equivalent to the dose they have been randomized to, placebo participants receive a placebo boost. The participants were followed up to 48 weeks (FIG. 1).\nTreatment consists of six administrations (separated by 14 days) of the IMP or the placebo by SC route. […]\nPatient blood samples collected at six time points (visit V-1 or the baseline which was prior to immunization, and visits V2 to V6 which were two weeks after 2, 3, 4, 5 or 6 injections respectively) was used to quantify CD4+ T cells responding to proinsulin epitope C20-A1 stimulation. […]\nFluorescent activated cell sorting (FACS) analysis was performed to quantify CD4+ T cells that respond to proinsulin epitope stimulation. […] In a proinsulin epitope C20-A1-stimulated sample, the “net % of responding CD4+ T cells” was calculated as the % of CD4+ T cells with an effector or regulatory phenotype in the stimulated sample minus the % of CD4+ T cells with effector or regulatory phenotype in the corresponding unstimulated sample. […]",
  "data": [
    {"sequence": "HCPYCSLQPLALEGSLQKRG [IMP]", "values": [
      {"measurement": "net % of responding CD4+ T cells in IMP treated as compared to Placebo treated patients at individual time points", "value": "trend of greater net % of responding CD4+ T cells"}
    ]}
  ]
}
